For series [1] the following is noted: in vivo; cited from earlier work.
Series [2] concerns plasmin-mediated fibrinolysis of human fibrin clots. Nature of the series: Fibrinolysis of 125I-fibrin human plasma clots with tPA, EACA vs Pi. The class given is biochemical. Particulars: tPA 5 nM, 2.5 h.
Another series concerns fibrinolytic bleeding. Nature of the series: Fibrinolytic bleeding assay in vivo (humanized tail bleeding model). Set-up: species or system mice. Particulars: EACA 510 micromole/kg intravenously. As to the method: Anesthetized mice were treated in a randomized, blinded fashion with saline (Control), Pi (100 nmole/kg) or EACA (510 micromole/kg) intravenously. Human plasminogen (100 nmole/kg) and plasminogen activator (80,000 IU/kg) were given over 60 min. Tail bleeding was initiated 40 min. after the infusion. Tails were pre-warmed for 5 mins in 3 mL of 37° C. saline and bleeding was monitored as described.36,37 N=5-6, Means±SE are shown. *p<0.05, **p<0.01; ns, not significant. Kruskal Wallis one way ANOVA, Dunn's corrections.
Fibrinolytic bleeding assays in vivo. Anesthetized mice were treated in a randomized, blinded fashion with saline (Control), Pi (100 nmole/kg) or EACA (510 micromole/kg). Human plasminogen (100 nmole/kg) and plasminogen activator (80,000 IU/kg) were given over 60 min. Tail bleeding started 40 min. after the infusion. Tails were pre-warmed for 5 mins in 3 mL of 37° C. saline as described.(27, 28).
Suppression of fibrinolytic bleeding in vivo. The potential utility of the Pi for suppression of fibrinolytic bleeding was examined in vivo in randomized, blinded studies of surgical arterial and venous hemorrhage.

In series [3] the target is plasmin-mediated cleavage of factor V (Homo sapiens, UniProt P00747). Nature of the series: Factor V cleavage by plasmin, SDS-PAGE. The class given is biochemical. Particulars: EACA 1 mM or Pi 5 ug, 1 hr RT. As to the method:
FIGS. 4A-4D show comparative inhibition of factor V cleavage and human clot fibrinolysis (dissolution) by Pi, EACA and a2AP. […] The relative migration of molecular weight standards is shown (kDa). […] Human plasma was clotted with CaCl2 (10 mM) and thrombin (1 U/ml) in the presence of trace amounts of 1251 fibrinogen for 1 h at 37 deg. C. After washing in 1 ml of TBS pH 7.4, tPA (5 nM) was added in the presence of various amounts of Pi (62.5 to 1000 nM), EACA (0.125 mM to 2 mM) or no inhibitor. After 2.5 h the amount of fibrinolysis was determined by measuring the amount of 125I-fibrin dissolved in the supernatant. Means of duplicate observations are shown. […] Clots were formed as above in the presence of human plasminogen (2 uM) and a2AP (1 uM) or Pi (1 uM) and various amounts of tPA (0-10 nM). Clot dissolution was monitored in duplicate over 2 h in microtiter plate wells at A405 nm. […] Human plasma clots were mixed with various concentrations of Pi IgG, Pi Fab and chimeric Pi Fab (25 nM-400 nM) and plasmin was activated by urokinase. The amount of clot lysis was determined as described in Methods.
Factor V cleavage. Human factor V (2 ug, IHFV, Innovative Research) was mixed with plasmin (0.05 ug) for 1 hr at RT in the presence of EACA (1 mM), Pi (5 ug) or a control monoclonal antibody (digoxin, 5 ug). […] Protein bands were detected by staining with Coomassie blue dye.

Another series concerns the target Plasmin (Homo sapiens, UniProt P00747). Nature of the series: Effect of mouse or chimeric Fab on plasmin activity, S2251. The class given is biochemical. Particulars: plasmin 25 nM, Fab 0-200 nM, S2251 0.5 mM. As to the method: FIGS. 2A-2D show comparative inhibition of plasmin activity by Pi EACA and a2AP. […] The percent residual activity of plasmin as a function of the log concentration of inhibitor is shown. […] Human plasmin (100 nM, Hematologic Technologies, Inc.) was mixed with or without Pi (50 nM) in the presence of the substrate S2251 (0.1 to 4 mM). The initial rate of substrate cleavage (6 min.) was monitored at A405. Data were plotted and analyzed using Michaelis-Menten kinetics by the Graphpad Prism Program. Means (duplicate observations) are shown and are representative of 4 separate experiments. […] The means of duplicate observations are shown. […] Plasmin (25 nM) was mixed with various concentrations (0-200 nM) of mouse Fab or chimeric Fab (cFab) and S2251 (0.5 mM) in TBS buffer pH 7.4. Plasmin activity was measured by the release of paranitroanilide product at A405 over time.
The effects of mouse or chimeric Fab on plasmin activity were examined. Plasmin (25 nM) was mixed with various concentrations (0-200 nM) of mouse Fab or chimeric Fab (cFab) and S2251 (0.5 mM) in TBS buffer pH 7.4. Plasmin activity was measured by the release of paranitroanilide product at A405 over time.

In a further series the test system is human plasma clots. Nature of the series: Clot lysis assay of Pi IgG, Fab and chimeric Fab, urokinase. The following applies: 25 nM-400 nM, 30 min. It is filed as biochemical. As to the method:
FIGS. 4A-4D show comparative inhibition of factor V cleavage and human clot fibrinolysis (dissolution) by Pi, EACA and a2AP. […] The relative migration of molecular weight standards is shown (kDa). […] Human plasma was clotted with CaCl2 (10 mM) and thrombin (1 U/ml) in the presence of trace amounts of 1251 fibrinogen for 1 h at 37 deg. C. After washing in 1 ml of TBS pH 7.4, tPA (5 nM) was added in the presence of various amounts of Pi (62.5 to 1000 nM), EACA (0.125 mM to 2 mM) or no inhibitor. After 2.5 h the amount of fibrinolysis was determined by measuring the amount of 125I-fibrin dissolved in the supernatant. Means of duplicate observations are shown. […] Clots were formed as above in the presence of human plasminogen (2 uM) and a2AP (1 uM) or Pi (1 uM) and various amounts of tPA (0-10 nM). Clot dissolution was monitored in duplicate over 2 h in microtiter plate wells at A405 nm. […] The amount of clot lysis was determined as described in Methods.
The effects of Pi IgG, Fab or chimeric Fab were also compared in a clot lysis assay in microtiter plates. […] C. was monitored at 405 nm. The percent clot dissolution at 30 min. was determined as the percent change in peak turbidity from baseline=100%×(peak absorbance−30 min. absorbance)/(peak absorbance−baseline absorbance).

plasmin-mediated cleavage of factor V, sequence (P00747 97-580 limits assumed): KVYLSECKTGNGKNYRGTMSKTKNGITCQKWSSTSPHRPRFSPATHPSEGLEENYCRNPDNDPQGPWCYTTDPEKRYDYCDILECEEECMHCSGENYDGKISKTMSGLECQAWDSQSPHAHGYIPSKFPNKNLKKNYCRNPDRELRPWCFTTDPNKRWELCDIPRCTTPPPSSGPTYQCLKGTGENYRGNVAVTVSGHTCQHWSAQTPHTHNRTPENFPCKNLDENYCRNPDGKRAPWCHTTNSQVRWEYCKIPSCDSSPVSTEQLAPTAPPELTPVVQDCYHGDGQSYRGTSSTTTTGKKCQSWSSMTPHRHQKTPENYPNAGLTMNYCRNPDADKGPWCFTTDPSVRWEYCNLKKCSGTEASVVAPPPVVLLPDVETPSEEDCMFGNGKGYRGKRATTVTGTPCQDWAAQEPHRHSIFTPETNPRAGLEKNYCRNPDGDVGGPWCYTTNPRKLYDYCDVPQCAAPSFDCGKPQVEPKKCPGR
plasmin-mediated cleavage of factor V, sequence (P00747 581-810 limits assumed): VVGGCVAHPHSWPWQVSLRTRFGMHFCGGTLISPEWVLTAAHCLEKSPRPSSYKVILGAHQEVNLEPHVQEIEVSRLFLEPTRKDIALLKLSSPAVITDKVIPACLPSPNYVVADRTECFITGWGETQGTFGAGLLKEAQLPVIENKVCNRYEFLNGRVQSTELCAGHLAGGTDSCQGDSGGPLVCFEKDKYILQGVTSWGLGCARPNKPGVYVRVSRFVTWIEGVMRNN
Plasmin, sequence (P00747 97-580 limits assumed): as the sequence (P00747 97-580 limits assumed) above
Plasmin, sequence (P00747 581-810 limits assumed): as the sequence (P00747 581-810 limits assumed) above

Consider `NC[C@H]1CC[C@H](C(=O)O)CC1` [Tranexamic acid, tranexamic acid], for which, in series [1], the “excreted via the urine unchanged” value is 95%.
Turning to `NCCCCCC(=O)O` [EACA, epsilon amino caproic acid, reference compound], the “fold less potent than the Pi in suppressing fibrinolysis” value in series [2] is on record as “approximately 5,000 fold”. Also, the “effect on fibrinolysis of human fibrin clots” value in series [2] (Pi 62.5 to 1000 nM, EACA 0.125 mM to 2 mM) was “diminished fibrinolysis”. Also, in the series on fibrinolytic bleeding, the “effect on bleeding time vs saline” value is listed as “did not reduce bleeding time or blood loss” and the “effect on blood loss vs saline” value is given as “did not reduce bleeding time or blood loss”. Also, the “effect on Factor V cleavage by plasmin” value in series [3] is “slightly diminished Factor V cleavage”.

B1: mouse Fab: Fab fragment of the Pi lacking the Fc domain (antibody, V domains shown)
VH: EVKLLESGGGLVQPGGSLKLSCAASGFDFSRYWMSWVRQAPGKGLEWIGEINPDSSTINYTPSLKDKFIISRDNAKNSLYLQMSKVRSEDTALYYCASYCGYSYDALDCWGQGTSVTVSS
VL: DIQMTQSPSSLSASLGGKVSITCKASQDINKYISWYQHKPGKGPRLLIHYTSTLQPGIPSRFSGSGSGRDYSFSISNLEPEDIATYYCLQYDNLYTFGGGTKLEIK
As for B1, the “inhibition of plasmin activity with tripeptide substrate” value in the series with Plasmin is on record as “potently inhibited plasmin activity”. Further, the “inhibition of clot lysis by Pi molecular forms” value with human plasma clots is listed as “effectively inhibited clot lysis”.

Values taken from patent US11066482B2, “Specific plasmin inactivation by anticatalytic antibody” (priority 2017, dated 2021).
